Consider ten molecules from patent EP0604800A1, “4- 4- 4-(carboxyalkyl)-phenyl amino carbonyl -phenyl -piperedines as aggregation inhibitors” (Dr. Karl Thomae GmbH, priority 1992, dated 1994).

Data set [1] relates to Collagen-induzierte Thrombozytenaggregation. As to the kind of experiment: Ex vivo inhibition of collagen-induced platelet aggregation after oral administration. The data set is classed as in vivo, Rhesusaffen. The note with it: 1 mg/kg, Rhesus monkeys, collagen 2 µg/ml. The source says: Die Hemmung der Thrombozytenaggregation nach oraler Gabe der Prüfsubstanz wird ex vivo an Rhesusaffen ermittelt.
Direkt vor der oralen Verabreichung der in Natrosol suspendierten Prüfsubstanz wird den Tieren eine Blutprobe aus der Kubitalvene als Referenzwert entnommen. Zu definierten Zeiten nach der Substanzgabe werden erneut Blutproben gewonnen und wie folgt untersucht.
Das mit 3,14% Natriumcitrat im Volumenverhältnis 1:10 versetzte Vollblut wird mit 200 g für 15 Minuten zentrifugiert. Der Überstand an plättchenreichem Plasma wird vorsichtig abgehoben. Aus dem erythrozytenreichen Sediment wird durch Zentrifugation mit 4000 g für 10 Minuten das plättchenarme Plasma als Überstand gewonnen.
Die mit Collagen (Hormonchemie, München; 2 µg/ml Endkonzentration im plättchenreichen Plasma) ausgelöste Thrombozytenaggregation in diesen ex vivo Proben wird nach der Methode von Born und Cross (J. Physiol. 170, 397 (1964)) photometrisch gemessen. Die nach Collagenstimulation gemessene größte Lichtdurchlässigkeit des plättchenreichen Plasmas wird mit dem Referenzwert verglichen, um die Hemmung der Aggregation zu den verschiedenen Zeitpunkten der Blutentnahme nach Substanzgabe relativ zum Referenzwert zu bestimmen.

The subject of a further data set is Humanthrombozyten. In words: Competitive binding of ³H-BIBU 52 / test substance to human platelets. The note with it: platelet suspension in plasma, ³H-BIBU 52 5 nM, 20 min at room temperature; read-out: Kompetitive Bindung ³H-BIBU 52/Textsubstanz an Humanthrombozyten IC₅₀ (converted). The source says: 1. Kompetitive Bindung ³H-BIBU 52/Testsubstanz an Humanthrombozyten:
Eine Suspension von Humanthrombozyten in Plasma wird mit ³H-BIBU 52 [= (3S,5S)-5-[(4'-Amidino-4-biphenylyl)oxymethyl]-3-[(carboxyl)methyl]-2-pyrrolidinon[3-³H-4-biphenylyl]), das den literaturbekannten Liganden ¹²⁵ I-Fibrinogen ersetzt, (siehe deutsche Patentanmeldung P 42 14 245.8 der gleichen Anmelderin vom 30. 04. 1992, internes Zeichen: Case 5/1093-FL) und verschiedenen Konzentrationen der zu testenden Substanz inkubiert. Der freie und gebundene Ligand wird durch Zentrifugation getrennt und durch Szintillationszählung quantitativ bestimmt. Aus den Meßwerten wird die Hemmung der ³H-BIBU 52-Bindung durch die Testsubstanz bestimmt.
Hierzu wird aus einer Antikubitalvene Spenderblut entnommen und mit Trinatriumzitrat antikoaguliert (Endkonzentration 13 mM). Das Blut wird 10 Minuten bei 170 x g zentrifugiert und das überstehende plättchenreiche Plasma (PRP) abgenommen. Das Restblut wird zur Gewinnung von Plasma nocheinmal scharf abzentrifugiert. Das PRP wird mit autologem Plasma 1:10 verdünnt. 750 µl werden mit 50 µl physiologischer Kochsalzlösung, 100 µl Testsubstanzlösung, 50 µl ¹⁴C-Sucrose (3.700 Bq) und 50 µl ³H-BIBU 52 (Endkonzentration: 5 nM) bei Raumtemperatur 20 Minuten inkubiert. Zur Messung der unspezifischen Bindung wird anstelle der Testsubstanz 5 µl BIBU 52 (Endkonzentration: 30 µM) eingesetzt. Die Proben werden 20 Sekunden bei 10000 x g zentrifugiert und der Überstand abgezogen. 100 µl hiervon werden zur Bestimmung des freien Liganden gemessen. Das Pellet wird in 500 µl 0,2N NaOH gelöst, 450 µl werden mit 2 ml Szintillator und 25 µl 5N HCl versetzt und gemessen. Das im Pellet noch verbliebene Restplasma wird aus dem ¹⁴C-Gehalt bestimmt, der gebundene Ligand aus der ³H-Messung. Nach Abzug der unspezifischen Bindung wird die Pelletaktivität gegen die Konzentration der Testsubstanz aufgetragen und die Konzentration für eine 50%ige Hemmung der Bindung ermittelt.

Data set [2] is described as follows: Tolerability after intravenous administration to mice. The data set is classed as in vivo, Mäusen. The note with it: 30 mg/kg, 3 mice each.
The next data set deals with Thrombozytenaggregation. In words: Collagen-induced platelet aggregation in platelet-rich plasma (Born and Cross). The data set is classed as cell-based, Versuchspersonen. The note with it: 10 min preincubation at 37°C, half-maximal inhibition of change in optical density, read-out: Hemmung der Plättchenaggregation EC₅₀ (converted). The source says: 2. Antithrombotische Wirkung Methodik Die Thrombozytenaggregation wird nach der Methode von Born und Cross (J. Physiol. 170, 397 (1964)) in plättchenreichem Plasma gesunder Versuchspersonen gemessen. Zur Gerinnungshemmung wird das Blut mit Natriumcitrat 3,14 % im Volumenverhältnis 1:10 versetzt. Collagen-induzierte Aggregation Der Verlauf der Abnahme der optischen Dichte der Plättchen-Suspension wird nach Zugabe der aggregationsauslösenden Substanz photometrisch gemessen und registriert. Aus dem Neigungswinkel der Dichtekurve wird auf die Aggregationsgeschwindigkeit geschlossen. Der Punkt der Kurve, bei dem die größte Lichtdurchlässigkeit vorliegt, dient zur Berechnung der "optical density". Die Collagen-Konzentration wird möglichst gering gewählt, aber doch so, daß sich eine irreversibel verlaufende Reaktionskurve ergibt. Verwendet wird das handelsübliche Collagen der Firma Hormonchemie, München. Vor der Collagen-Zugabe wird das Plasma jeweils 10 Minuten mit der Substanz bei 37°C inkubiert. Aus den Konzentrations-Wirkungskurven wird die EC₅₀ berechnet, die die Konzentration beschreibt, bei der die Änderung der "optical density" halbmaximal gehemmt ist.

Structures are written as SMILES. Where a name gives a salt, the structure may show the parent alone.

In the case of `CCCCS(=O)(=O)NC(Cc1ccc(NC(=O)c2cccc(C3CCNCC3)c2)cc1)C(=O)OC.Cl` (stereo not shown) [5(2), 4-[3-[[4-[2-(n-Butansulfonylamino)-2-(methoxycarbonyl)-ethyl]-phenyl]-aminocarbonyl]-phenyl]-piperidin-hydrochlorid], the “Dauer der Hemmung der Collagen-induzierten Thrombozytenaggregation ex vivo” value in data set [1] is given as over 2 Stunden.

On to `COC(=O)CC[C@H]1CC[C@H](NC(=O)c2ccc(C3CCNCC3)cc2)CC1.Cl` [Beispiel 2, 4-[4-[[trans-4-[2-(Methoxycarbonyl)-ethyl]-cyclohexyl]-aminocarbonyl]-phenyl]-piperidin-hydrochlorid], for which, in the data set on Humanthrombozyten, the IC50 was 1.1 µM. In data set [2], the “gestorbene Tiere” value is recorded as “keine Tieren gestorben”. Moreover, in the data set with Thrombozytenaggregation, the EC50 was 0.84 µM. Moreover, the “Dauer der Hemmung der Collagen-induzierten Thrombozytenaggregation ex vivo” value in data set [1] is over 2 Stunden.

With `COC(=O)CCc1ccc(NC(=O)c2ccc(C3CCNCC3)cc2)cc1` [Beispiel 2.1, 4-[4-[[4-[2-(Methoxycarbonyl)-ethyl]-phenyl]-aminocarbonyl]-phenyl]-piperidin-hydrochlorid], the IC50 in the data set on Humanthrombozyten is over 100 µM. Further, the EC50 in the data set on Thrombozytenaggregation was 3.3 µM.

As for `CCCCS(=O)(=O)NC(Cc1ccc(NC(=O)c2ccc(C3CCNCC3)cc2)cc1)C(=O)OC` (stereo not shown) [Beispiel 2.2, 4-[4-[[4-[2-(n-Butansulfonylamino)-2-(methoxycarbonyl)-ethyl]-phenyl]-aminocarbonyl]-phenyl]-piperidin-hydrochlorid], the IC50 with Humanthrombozyten was 4.5 µM. In addition, in the data set on Thrombozytenaggregation, the EC50 was 3.3 µM.

Regarding `Cl.O=C(O)CC[C@H]1CC[C@H](NC(=O)c2ccc(C3CCNCC3)cc2)CC1` [Beispiel 3, 4-[4-[[trans-4-(2-Carboxy-ethyl)-cyclohexyl]-aminocarbonyl]-phenyl]-piperidin-hydrochlorid], the IC50 with Humanthrombozyten is 0.19 µM. The “gestorbene Tiere” value in data set [2] was “keine Tieren gestorben”. In addition, the EC50 in the data set on Thrombozytenaggregation is 0.26 µM.

For the molecule `O=C(O)CCc1ccc(NC(=O)c2ccc(C3CCNCC3)cc2)cc1` [Beispiel 3.1, 4-[4-[[4-(2-Carboxy-ethyl)-phenyl]-aminocarbonyl]-phenyl]-piperidin-hydrochlorid], in the data set with Humanthrombozyten, the IC50 is 1.4 µM. In the data set with Thrombozytenaggregation, the EC50 is 2.4 µM.

For the molecule `CCCCS(=O)(=O)NC(Cc1ccc(NC(=O)c2ccc(C3CCNCC3)cc2)cc1)C(=O)O` (stereo not shown) [Beispiel 3.3, 4-[4-[[4-[2-(n-Butansulfonyl-amino)-2-carboxy-ethyl]-phenyl]-aminocarbonyl]-phenyl]-piperidin-hydrochlorid], in the data set with Humanthrombozyten, the IC50 was 0.017 µM. Also, in the data set on Thrombozytenaggregation, the EC50 is 0.26 µM.

For the molecule `O=C(O)CC[C@H]1CC[C@H](NC(=O)c2cccc(C3CCNCC3)c2)CC1` [Beispiel 3.4, 4-[3-[[trans-4-(2-Carboxy-ethyl)-cyclohexyl]-aminocarbonyl]-phenyl]-piperidin-hydrochlorid], the IC50 with Humanthrombozyten was 2 µM. Further, the EC50 with Thrombozytenaggregation was 5.8 µM.

On to `CCCCS(=O)(=O)NC(Cc1ccc(NC(=O)c2cccc(C3CCNCC3)c2)cc1)C(=O)O` (stereo not shown) [Beispiel 3.6, 4-[3-[[4-[2-(n-Butansulfonylamino)-2-carboxy-ethyl]-phenyl]-aminocarbonyl]-phenyl]-piperidin-hydrochlorid], for which the IC50 in the data set on Humanthrombozyten was 0.014 µM. The EC50 in the data set on Thrombozytenaggregation was 0.12 µM.

In the case of `COC(=O)CC[C@H]1CC[C@H](NC(=O)c2cccc(C3CCNCC3)c2)CC1` [Beispiel 5, 4-[3-[[trans-4-[2-(Methoxycarbonyl)-ethyl]-cyclohexyl]-aminocarbonyl]-phenyl]-piperidin-hydrochlorid], in the data set with Humanthrombozyten, the IC50 was 2.9 µM. In the data set with Thrombozytenaggregation, the EC50 was 5.6 µM.
